# Reference: patent US5763443A, “MDR resistance treatment and novel pharmaceutically active riminophenazines” (priority 1994, dated 1998)
# Like-named read-outs stand apart in the source and are kept apart here.
# Tests used:
# [1] = system: human small cell lung cancer cell line H69/P; test: MTT assay, 7 day exposure, sensitivity of parent cell line H69/P to chemotherapeutic agents; type: cell-based
# Protocol: (§1) The riminophenazines of the above formula (I), contain an imino group. […] The potency of compounds of the above general formula, as inhibitors of multi-drug resistance, was assessed by sensitization of a P-glycoprotein positive cell line to drugs associated with this form of resistance. A human small cell lung cancer cell line H 69/P as well as a multi-drug resistance (MDR) sub-line H69/LX4 were used. These cell lines were obtained from the Medical Research Council Clinical Oncology and Radiotherapeutics Unit, Hills Road, Cambridge, England. The H69/LX4 line was selected in vitro by progressive exposure to increasing concentrations of doxorubicin in order to increase P-glycoprotein expression.
# (§2) The cell lines used were human small cell lung cancer cell line HP69/P and a multi-drug resistant (MDR) sub-line H69/LX4, both of which were supplied by the MRC Clinical Oncology and Radiotherapeutics Unit, Hills Road, Cambridge, England. The maintenance of the cell lines and drug response assays was done as described by Twentyman et al in British Journal of Cancer Volume 65 pages 335-340. The H69/LX4 line was originally described by Twentyman et al in British Journal of Cancer Volume 53, pages 529-637 (1986).
# (§3) The data in parenthesis represents fold sensitivity compared with the chemotherapeutic agent without the MDR inhibitor.
# [2] = system: MDR leukaemia cell line K562/MMB; test: cells; conditions: for IC50: Homo sapiens; for MDR activity / sensitivity against cell line K562/MMP: compared with known reference compound B4100
# Protocol: A third cell line (562/MMB) used was a MDR leukemia cell line selected in vitro by progressive exposure to increasing concentrations of vinblastine in order to increase P-glycoprotein expression. This cell line was developed in the Department of Immunology, University of Pretoria from K562 (ATCC CCL 243) supplied by Highveld Biological (Pty) Ltd, Sandton.
# (§4) The general procedure set forth above was followed, i.e. 7 days incubation in the4 presence of doxorubicin at 12,5 ng/ml or vinblastine at 25 or 3 ng/ml.
# (§5) The effects were examined over a seven (7) day exposure to different concentrations of B4119 and B4125 on the sensitivity of a doxorubicin resistant leukaemia cell line (K562/MMB) and a lung carcinoma cell line (H69/LX4) to doxorubicin (dox) and vinblastine (VB) using the MTT assay.
# [3] = system: multi-drug resistant (MDR) lung carcinoma cell line H69/LX4; test: in vitro; conditions: for IC50: Homo sapiens; for INCREASED SENSITIVITY H69/Lx4: Table VIII, values equal IC50 NONE / IC50 with VB 25 ng/ml of Table VII, 10080 min; for MDR reversal properties: with doxorubicin 12,5 ng/ml or vinblastine 25 ng/ml, FIGS. 4 to 7
# Protocol: as §1, §2, §3
# The results obtained, are illustrated graphically in FIGS. 4 to 7 of the accompanying drawings.
# as §4, §5
# H69/LX4 cells = test: [14C]-vinblastine accumulation in MDR cell line; type: cell-based, human; conditions: 1 hour pretreatment, 30 minutes [14C]-vinblastine
# Protocol: The effect of riminophenazines on the accumulation of [^14 C]-vinblastine was investigated. For these experiments, both of the above cell lines (H69/LX4 and H69/P) were prepared as described by Coley et al (Biochem. Pharmacal 38, 4467-4475 (1989)). After a 1 hour pretreatment with the MDR reversal agents, cells (1×10^6 /ml) were exposed to […] [^14 C]-vinblastine (1 μCi specific activity) for 30 minutes.
# [4] = bio-availability (no method given)
# [5] = system: gram positive microorganisms (Mycobacterium, Enterococcus, Streptococcus, methicillin resistant Staphylococcus); test: anti-bacterial activity
# [6] = H69/P, CsA 5 μg/ml, clofazimine 1 μg/ml or B669 0.5 μg/ml
# [7] = K562, read-out: IC 50 K562/MMB VB 3 ng/ml, Table VII, with vinblastine 3 ng/ml
# [8] = Table VIII, values equal IC50 NONE / IC50 with VB 3 ng/ml of Table VII, 10080 min
# [9] = H69/LX4, CsA 5 μg/ml, clofazimine 1 μg/ml or B669 0.5 μg/ml
# [10] = 168 h, read-out: IC 50 H69/Lx4 NONE
# [11] = read-out: IC 50 H69/Lx4 DOX 12 ng/ml
# [12] = read-out: IC 50 H69/Lx4 VB 25 ng/ml
smiles,measurement,setting,value
"CC(C)N=c1cc2n(-c3ccc(Cl)cc3)c3ccccc3nc-2cc1Nc1ccc(Cl)cc1 [Compound B663, N,5-bis-(4-chlorophenyl)-3,5-dihydro-3-[(1-methylethyl)imino]-2-phenazinamine, reference compound]",fold sensitivity to Etoposide compared with agent without MDR inhibitor,"[1]; 168 h, 1 ug/mL",0.6 fold
same,fold sensitivity to Cyclophosphamide compared with agent without MDR inhibitor,[1]; [6],0.9 fold
same,fold sensitivity to Daunorubicin compared with agent without MDR inhibitor,[1]; [6],1.0 fold
same,fold sensitivity to Doxorubicin compared with agent without MDR inhibitor,[1]; [6],0.8 fold
same,fold sensitivity to Methotrexate compared with agent without MDR inhibitor,[1]; [6],0.9 fold
same,fold sensitivity to Mitomycin C compared with agent without MDR inhibitor,[1]; [6],0.7 fold
same,fold sensitivity to Vinblastine compared with agent without MDR inhibitor,[1]; [6],1.3 fold
same,IC50,[2]; [7],0.038 µg/mL
same,INCREASED S[…] 562/MMB,[2]; [8],5.92
same,MDR activity / sensitivity against cell line K562/MMP,[2],good activity
same,fold sensitivity to Etoposide compared with agent without MDR inhibitor,"[3]; 168 h, 1 ug/mL",5.0 fold
same,fold sensitivity to Cyclophosphamide compared with agent without MDR inhibitor,[3]; [9],1.0 fold
same,fold sensitivity to Daunorubicin compared with agent without MDR inhibitor,[3]; [9],4 fold
same,fold sensitivity to Doxorubicin compared with agent without MDR inhibitor,[3]; [9],11 fold
same,fold sensitivity to Methotrexate compared with agent without MDR inhibitor,[3]; [9],0.7 fold
same,fold sensitivity to Mitomycin C compared with agent without MDR inhibitor,[3]; [9],1.7 fold
same,fold sensitivity to Vinblastine compared with agent without MDR inhibitor,[3]; [9],~13 fold
same,fold sensitivity to Vinblastine compared with agent without MDR inhibitor,"[3]; H69/LX4, CsA 5 μg/ml, clofazimine 1 μg/ml or B669 0.5 μg/ml, listed as Clofazimine (B663)",13.7 fold
same,IC50,[3]; [10],2.5 µg/mL
same,IC50,[3]; [11],1.31 µg/mL
same,IC50,[3]; [12],0.372 µg/mL
same,INCREASED SENSITIVITY H69/Lx4,[3],6.72
same,vinblastine accumulation in the MDR cell line,H69/LX4 cells,significant enhancement
"CC1(C)CC(N=c2cc3n(-c4ccc(C(F)(F)F)cc4)c4ccccc4nc-3cc2Nc2ccc(C(F)(F)F)cc2)CC(C)(C)N1 [Compound B4103, N,5-bis(4-trifluoromethylphenyl)-3,5-dihydro-3[(2',2',6',6'-tetramethyl-4-piperidyl)imino]-2-phenazinamine]",INCREASED SENSITIVITY K 562/MMB,[2]; [8],0.69
same,MDR reversal properties,[3]; H69/LX4,Very good MDR reversal properties
same,IC50,[3]; [10],0.755 µg/mL
same,IC50,[3]; [11],0.552 µg/mL
same,IC50,[3]; [12],0.145 µg/mL
same,INCREASED SENSITIVITY H69/Lx4,[3],5.21
same,bio-availability,[4],good bio-availability
"CC1(C)CC(N=c2cc3n(-c4cc(Cl)cc(Cl)c4)c4ccccc4nc-3cc2Nc2cc(Cl)cc(Cl)c2)CC(C)(C)N1 [Compound B4121, N,5-bis(3,5-dichiorophenyl)-3,5-dihydro-3-[(2',2',6',6'-tetramethyl-4-pipendyl)-imino]-2-phenazinamine]",IC50,[2]; [7],0.023 µg/mL
same,INCREASED SENSITIVITY K 562/MMB,[2]; [8],97.83
same,MDR activity / sensitivity against cell line K562/MMP,[2],increased substantially and unexpectedly
same,IC50,[3]; [10],1.23 µg/mL
same,IC50,[3]; [11],0.524 µg/mL
same,IC50,[3]; [12],0.162 µg/mL
same,INCREASED SENSITIVITY H69/Lx4,[3],7.57
same,anti-bacterial activity,[5],Particularly active
"CC1(C)CC(N=c2cc3n(-c4ccccc4Cl)c4ccccc4nc-3cc2Nc2ccccc2Cl)CC(C)(C)N1 [Compound B4125, N,5-bis(2-chlorophenyl)-3,5-dihydro-3-[(2',2',6',6'-tetramethyl-4-piperidyl)-imino]-2-phenazinamine]",IC50,"[2]; K562, 168 h, read-out: IC 50 K562/MMB NONE",0.311 µg/mL
same,IC50,"[2]; K562, read-out: IC50 K562/MMB +VB (3 ng/ml), Table VI, with vinblastine 3 ng/ml",0.026 µg/mL
same,IC50,"[2]; K562, read-out: IC50 K562/MMB +dox (12 ng/ml), Table VI, with doxorubicin 12 ng/ml",0.188 µg/mL
same,IC50,"[2]; K562, read-out: IC 50 K562/MMB DOX 12 ng/ml, Table VII, with doxorubicin 12 ng/ml",0.188 µg/mL
same,IC50,[2]; [7],0.026 µg/mL
same,IC50,"[2]; K562, read-out: IC50 K562/MMB none",0.311 µg/mL
same,INCREASED SENSITIVITY K 562/MMB,[2]; [8],11.96
same,MDR activity / sensitivity against cell line K562/MMP,[2],exceptionally good activity
same,IC50,[3]; [10],0.785 µg/mL
same,IC50,[3]; read-out: IC50 H69/LX4 +VB (25 ng/ml),0.399 µg/mL
same,IC50,[3]; read-out: IC50 H69/LX4 +dox (12 ng/ml),0.521 µg/mL
same,IC50,[3]; read-out: IC50 H69/LX4 none,0.785 µg/mL
same,IC50,[3]; [11],0.521 µg/mL
same,IC50,[3]; [12],0.399 µg/mL
same,INCREASED SENSITIVITY H69/Lx4,[3],1.97
same,anti-bacterial activity,[5],Particularly active
"CC1(C)CC(N=c2cc3n(-c4cccc(C(F)(F)F)c4)c4ccccc4nc-3cc2Nc2cccc(C(F)(F)F)c2)CC(C)(C)N1 [Compound B4126, N,5-bis(3-trifluoromethyl-phenyl)-3,5-dihydro-3-[(2',2',6',6'-tetramethyl-4-piperidyl)-imino]-2-phenazinamine]",INCREASED SENSITIVITY K 562/MMB,[2]; [8],4.45
same,IC50,[3]; [10],0.699 µg/mL
same,IC50,[3]; [11],0.455 µg/mL
same,IC50,[3]; [12],0.26 µg/mL
same,INCREASED SENSITIVITY H69/Lx4,[3],2.69
same,anti-bacterial activity,[5],Particularly active
"CC(C)c1ccc(Nc2cc3nc4ccccc4n(-c4ccc(C(C)C)cc4)c-3cc2=NC2CC(C)(C)NC(C)(C)C2)cc1 [Compound B4158, N,5-bis(4-isopropylphenyl)-3,5-dihydro-3-[(2',2',6',6'-tetramethyl-4-piperidyl)-imino]-2-phenazinamine]",INCREASED SENSITIVITY K 562/MMB,[2]; [8],4.69
same,MDR activity against the cell line H69/LX4,[3],Reasonably good activity
same,MDR reversal properties,[3]; H69/LX4,Very good MDR reversal properties
same,IC50,[3]; [10],0.408 µg/mL
same,IC50,[3]; [11],0.343 µg/mL
same,IC50,[3]; [12],0.124 µg/mL
same,INCREASED SENSITIVITY H69/Lx4,[3],3.29
same,bio-availability,[4],good bio-availability
